Values of other authors as cited in US7192914B1, “Prevention of atherosclerosis and undesired blood clotting by reducing von Willebrand factor” (The Regents of the University of California, priority 1999, dated 2007).

System: human endothelial cells
Conditions: human endothelial cells treated with tunicamycin; Wagner et al. (1986) J. Cell Biol. 102: 1320-4

tunicamycin
effect on secreted vWF: absence of secreted vWF
